Experimental data reported in US4868204A, “Mycalamide compounds, compositions thereof and methods of preparation and use” (Harbor Branch Oceanographic Institution, Inc., priority 1988, dated 1989).

How the values were obtained:
[1] = system: P388 mouse leukemia cell; assay: in vitro P388 mouse leukemia cell assay; type: cell-based; settings: 50% inhibition of cell replication vs untreated cultures
Method: Antitumor effectiveness of the compounds of the invention was evaluated using a standardized in vitro P388 mouse leukemia cell assay protocol disclosed in U.S. Pat. No. 4,731,366 with the antitumor activity being expressed in IC50 (concentration that results in 50% inhibition of cell replication normalized to untreated cultures) determined with a log-log transform of data and expressed as xx ng/ml. As an example, for mycalamide A the P388 assay value was […]

[2] = system: polio vaccine virus Type I (PVI); type: cell-based
[3] = system: BSC cells
[4] = system: HSV; type: cell-based, Herpes simplex type 1 virus

Row | SMILES | P388 IC50 [1] [µg/mL] | AV assay, PVI [2] | AV assay, cytotoxicity [3] | AV assay, HSV [4]
1 | C=C1CC(OC)(C(O[Si](C)(C)C)C(=O)NC2OCOC3C2OC(CC(CO[Si](C)(C)C)OC)C(C)(C)C3OC)OC(C)C1C (stereo not shown) [Example 18, Mycalamide B bis-trimethylsilylether] | 0.00019 |  |  | 
2 | C=C1CC(OC)(C(OC(=O)CC)C(=O)NC2OCOC3C2OC(CC(COC(=O)CC)OC(=O)CC)C(C)(C)C3OC)OC(C)C1C (stereo not shown) [Example 8, Mycalamide A Tripropanoate] | 0.0856 | 4+ and - | - | 
3 | C=C1CC(O)(C(O)C(=O)NC2OCOC3C2OC(CC(O)CO)C(C)(C)C3OC)OC(C)C1C (stereo not shown) [Example 28, Pseudomycalamide A] | 0.023 | 4+ |  | 4+
4 | COC1C2OCOC(NC(=O)C(O)C3(OC)CC4(CO4)C(C)C(C)O3)C2OC(CC(O)CO)C1(C)C (stereo not shown) [Example 3, Mycalamide A 4 γ-epoxide] | 0.034 |  |  | 
5 | C=C1CC(OC)(C(OC(=O)c2ccc(Br)cc2)C(=O)NC2OCOC3C2OC(CC(O)CO)C(C)(C)C3OC)OC(C)C1C (stereo not shown) [Example 10, Mycalamide A 7-mono-p-bromobenzoate] | 0.0233 | 4+ |  | 4+
6 | C=C1CC(OC)(C(OC(C)=O)C(=O)NC2OCOC3C2OC(CC(COC(C)=O)OC)C(C)(C)C3OC)OC(C)C1C (stereo not shown) [Example 9, Mycalamide B Diacetate] | 0.0153 | 4+ and - | - | 4+ and -
7 | C=C1CC(OC)(C(OC(=O)c2ccc(Br)cc2)C(=O)NC2OCOC3C2OC(CC(O)COC(=O)c2ccc(Br)cc2)C(C)(C)C3OC)OC(C)C1C (stereo not shown) [Example 12, Mycalamide A 7,18-di-p-bromobenzoate] | 0.1412 | 4+ |  | 
8 | COC1C2OCOC(NC(=O)C(O)C3(OC)CC4(CO4)C(C)C(C)O3)C2OC(CC(O)CO)C1(C)C (stereo not drawn) [Example 4, Mycalamide A 4β-epoxide] | 0.0149 |  |  | 4+
9 | COC1C2OCOC(NC(=O)C(OC(=O)c3ccc(Br)cc3)=C3C=C(C)C(C)C(C)O3)C2OC(CC(O)COC(=O)c2ccc(Br)cc2)C1(C)C (single isomer, unassigned) [Example 13, Neomycalamide A 7,18-di-p-bromobenzoate] | 0.5725 | 4+ and - | - | 4+ and -
10 | COC(CO)CC1OC2C(NC(=O)C(O)C3(OC)CC(C)C(C)C(C)O3)OCOC2C(OC)C1(C)C (stereo not drawn) [Example 24, 4β-Dihydro mycalamide B] | 0.00014 | 4+ |  | 
11 | C=C1CC(OC)(C(O)C(=O)NC2OCOC3C2OC(CC(O)COC(=O)c2ccc(Br)cc2)C(C)(C)C3OC)OC(C)C1C (stereo not shown) [Example 11, Mycalamide A 18-mono-p-bromobenzoate] | 0.00128 | 4+ and - | - | 
12 | C=C1CC(OC)(C(OC(C)=O)C(=O)NC2OCOC3C2OC(CC(COC(C)=O)OC(C)=O)C(C)(C)C3OC)OC(C)C1C (stereo not shown) [Example 7, Mycalamide A Triacetate] | 0.0519 |  | - | 
13 | C=C1C[C@](OC)([C@H](O)C(=O)N[C@H]2OCO[C@H]3[C@@H]2O[C@H](C[C@@H](CO)OC)C(C)(C)[C@@H]3OC)O[C@H](C)[C@@H]1C [Example 2, Mycalamide B] | 0.00026 | 4+ and - | - | 4+ and -
